Laboratory results taken from US5804583A, “Pyrimidinone derivatives fused to nitrogen heterocycles having a II antagonistic activity” (Istituto Luso Farmaco D'Italia, priority 1993, dated 1998).

What was measured:
A II receptor [1] = assay: receptor binding test: displacement of 125I-Sar1-Ile8-AT II or [3H] AT II in the rat adrenal cortex
Source text: (§1) The compounds described in the present invention act as antagonists at the A II receptor level. For the characterization and the evaluation of the effectiveness of the compounds of the invention, in vitro tests (such as the inhibition of the A II-induced contraction in the rabbit aorta and the displacement of ^125 I-Sar^1 -Ile^8 -AT II or [^3 H] AT II in the rat adrenal cortex) and an in vivo test (the inhibition of the A II-induced pressory response in the ganglio-blocked normotensive rat) were selected.

A II receptor [2] = assay: inhibition of the A II-induced contraction in the rabbit aorta
Source text: as §1

CCCCc1c(Cc2ccc(-c3ccccc3-c3nnn[nH]3)cc2)c(=O)nc2n1C(C)C(=O)N2 (centres unmarked) [ex.6, 5-butyl-3-methyl-6-[[2'-(1H-tetrazol-5-yl)biphenyl-4-yl]methyl]imidazo[1,2-a]pyrimidin-2,7-dione]
Ki (A II receptor [1]): 5 nM
PKB (A II receptor [2]): 10.4
